Reference: US9635854B2, “Controlling red rice with mesotrione” (FMC Corporation, priority 2014, dated 2017)
Read-outs that look alike come from different tables or passages of the source.

Legend:
[1] = test system: Rice (Oryza sativa) 'Taggart'; settings: PRE, direct-seeded flooded rice
Experimental: Rice (Oryza sativa) crop varieties (‘Cybonee’, ‘Jupiter’, and ‘Taggart’) and red rice (Oryza sativa) were planted in 6 inch plastic pots containing sterile top soil. Eight to ten seeds of each species were seeded at 12 o'clock, 3 o'clock, 6 o'clock or 9 o'clock around the pot. The pots were watered after planting. […] The test solutions were applied using a compressed air track spray chamber at 30 gallons per acre using a Teejet 8001E nozzle at 40 PSI, three replicates per test rate. After treatment, the pots were watered lightly and transferred to trays in a greenhouse. After the plants were two inches in height the trays were flooded with water and maintained as such for 14 days. The trays were emptied of water and the pots were maintained by regular watering for 4 more days. At 14, 21 and 28 days after treatment (DAT) the plants were evaluated versus untreated control pots containing the same rice and weeds using a scale of 0% (no control) to 100% (complete plant death).

[2] = test system: red rice (Oryza sativa); test: Pre-emergent evaluation on dryland rice, red rice control; type: in vivo; settings: for Percent red rice control: PRE, direct-seeded dryland rice
Description: Rice (Oryza sativa) was planted in 6″ by 10″ fiber flats filled with sterile top soil. Five rows were made in each flat and the three rice varieties (′Cybonee, ‘Jupiter’, and ‘Taggart’) were planted in the center 3 rows and a row of red rice (Oryza sativa) was planted on either end of the flat. The flats were watered after planting. After application flats were placed in the greenhouse and lightly watered. […] The flats were moved to a greenhouse and watered and fertilized routinely. Studies were conducted using randomized complete block design with four replications. In both studies, visual percent red rice control and rice injury were recorded at 14, 21, and 28 days after treatment (DAT), using a scale of 0 (no control/injury) to 100 (complete plant death).

[3] = test system: large crabgrass (Digitaria sanguinalis); test: Pre-emergent weed control in direct-seeded flooded rice (Example 2); type: in vivo; settings: 28 Days After Treatment
Description: (§1) Seeds of crops, rice (Taggart and Wells varieties) and weeds, yellow nutsedge (Cyperus esculentus), barnyardgrass (Echinochloa crus-galli), large crabgrass (Digitaria sanguinalis), hemp sesbania (Sesbania herbacea), Benghal dayflower (Commelina benghalensis), red rice (Oryza sativa) and broadleaf signalgrass (Urochloa platyphylla) were planted in two gallon pots containing top soil. Each pot was watered well before the application of mesotrione (Callisto® Herbicide from Syngenta Crop Protection).

[4] = test system: yellow nutsedge (Cyperus esculentus); test: as above; type: in vivo; settings: for % weed control Nutsedge: pre-emergent, flooded, 28 Days After Treatment
Description: as §1

[5] = test system: barnyardgrass (Echinochloa crus-galli); test: as above; type: in vivo; settings: 28 Days After Treatment
Description: as §1

[6] = test system: broadleaf signalgrass (Urochloa platyphylla); test: as above; type: in vivo; settings: 28 Days After Treatment
Description: as §1

[7] = test system: hemp sesbania (Sesbania herbacea); test: as above; type: in vivo; settings: 28 Days After Treatment
Description: as §1

[8] = test system: Benghal dayflower (Commelina benghalensis); test: as above; type: in vivo; settings: 28 Days After Treatment
Description: as §1

[9] = test system: red rice (Oryza sativa); test: as above; type: in vivo; settings: for % weed control Red Rice: pre-emergent, flooded, 28 Days After Treatment
Description: as §1

[10] = pre-emergent treatment at 50 g ai/ha, flooded rice test

CS(=O)(=O)c1ccc(C(=O)C2C(=O)CCCC2=O)c([N+](=O)[O-])c1 [Mesotrione, mesotrione]
Percent rice injury Taggart ([1]; 14 DAT, 12.5 g ai/ha): 4 B %
Percent rice injury Taggart ([1]; 14 DAT, 25 g ai/ha): 1 B %
Percent rice injury Taggart ([1]; 14 DAT, 37.5 g ai/ha): 4 B %
Percent rice injury Taggart ([1]; 14 DAT, 50 g ai/ha): 7 B %
Percent rice injury Taggart ([1]; 14 DAT, 62.5 g ai/ha): 12 B %
Percent rice injury Taggart ([1]; 14 DAT, 75 g ai/ha): 12 B %
Percent rice injury Taggart ([1]; 14 DAT, 87.5 g ai/ha): 19 B %
Percent rice injury Taggart ([1]; 14 DAT, 100 g ai/ha): 18 B %
Percent rice injury Taggart ([1]; 21 DAT, 12.5 g ai/ha): 1 D %
Percent rice injury Taggart ([1]; 21 DAT, 25 g ai/ha): 1 D %
Percent rice injury Taggart ([1]; 21 DAT, 37.5 g ai/ha): 1 D %
Percent rice injury Taggart ([1]; 21 DAT, 50 g ai/ha): 6 D %
Percent rice injury Taggart ([1]; 21 DAT, 62.5 g ai/ha): 10 CD %
Percent rice injury Taggart ([1]; 21 DAT, 75 g ai/ha): 25 BCD %
Percent rice injury Taggart ([1]; 21 DAT, 87.5 g ai/ha): 35 BC %
Percent rice injury Taggart ([1]; 21 DAT, 100 g ai/ha): 38 B %
Percent rice injury Taggart ([1]; 28 DAT, 12.5 g ai/ha): 2 C %
Percent rice injury Taggart ([1]; 28 DAT, 25 g ai/ha): 4 C %
Percent rice injury Taggart ([1]; 28 DAT, 37.5 g ai/ha): 4 C %
Percent rice injury Taggart ([1]; 28 DAT, 50 g ai/ha): 9 C %
Percent rice injury Taggart ([1]; 28 DAT, 62.5 g ai/ha): 9 C %
Percent rice injury Taggart ([1]; 28 DAT, 75 g ai/ha): 29 BC %
Percent rice injury Taggart ([1]; 28 DAT, 87.5 g ai/ha): 42 AB %
Percent rice injury Taggart ([1]; 28 DAT, 100 g ai/ha): 53 AB %
Percent red rice control ([2]; 14 DAT, 12.5 g ai/ha): 33 D %
Percent red rice control ([2]; 14 DAT, 25 g ai/ha): 70 B %
Percent red rice control ([2]; 14 DAT, 37.5 g ai/ha): 74 B %
Percent red rice control ([2]; 14 DAT, 50 g ai/ha): 79 A %
Percent red rice control ([2]; 14 DAT, 62.5 g ai/ha): 80 A %
Percent red rice control ([2]; 14 DAT, 75 g ai/ha): 80 A %
Percent red rice control ([2]; 14 DAT, 87.5 g ai/ha): 80 A %
Percent red rice control ([2]; 14 DAT, 100 g ai/ha): 80 A %
Percent red rice control ([2]; 21 DAT, 12.5 g ai/ha): 60 C %
Percent red rice control ([2]; 21 DAT, 25 g ai/ha): 81 B %
Percent red rice control ([2]; 21 DAT, 37.5 g ai/ha): 84 AB %
Percent red rice control ([2]; 21 DAT, 50 g ai/ha): 86 AB %
Percent red rice control ([2]; 21 DAT, 62.5 g ai/ha): 89 AB %
Percent red rice control ([2]; 21 DAT, 75 g ai/ha): 90 A %
Percent red rice control ([2]; 21 DAT, 87.5 g ai/ha): 90 A %
Percent red rice control ([2]; 21 DAT, 100 g ai/ha): 90 A %
Percent red rice control ([2]; 28 DAT, 12.5 g ai/ha): 62 B %
Percent red rice control ([2]; 28 DAT, 25 g ai/ha): 89 A %
Percent red rice control ([2]; 28 DAT, 37.5 g ai/ha): 88 A %
Percent red rice control ([2]; 28 DAT, 50 g ai/ha): 91 A %
Percent red rice control ([2]; 28 DAT, 62.5 g ai/ha): 92 A %
Percent red rice control ([2]; 28 DAT, 75 g ai/ha): 92 A %
Percent red rice control ([2]; 28 DAT, 87.5 g ai/ha): 95 A %
Percent red rice control ([2]; 28 DAT, 100 g ai/ha): 93 A %
red rice control (words, FIG. 3) ([2]; pre-emergent treatment at 25 g ai/ha, direct seeded dryland rice test): controlled
% weed control Crabgrass ([3]; 6 g ai/ha): 70%
% weed control Crabgrass ([3]; 12 g ai/ha): 100%
% weed control Crabgrass ([3]; 25 g ai/ha): 100%
% weed control Crabgrass ([3]; 50 g ai/ha): 100%
% weed control Crabgrass ([3]; 100 g ai/ha): 100%
% weed control Crabgrass ([3]; 200 g ai/ha): 100%
yellow nutsedge control (words, FIG. 1) [4, 10]: controlled
% weed control Nutsedge ([4]; 6 g ai/ha): 38%
% weed control Nutsedge ([4]; 12 g ai/ha): 77%
% weed control Nutsedge ([4]; 25 g ai/ha): 92%
% weed control Nutsedge ([4]; 50 g ai/ha): 97%
% weed control Nutsedge ([4]; 100 g ai/ha): 100%
% weed control Nutsedge ([4]; 200 g ai/ha): 100%
% weed control Barnyardgrass ([5]; 6 g ai/ha): 10%
% weed control Barnyardgrass ([5]; 12 g ai/ha): 32%
% weed control Barnyardgrass ([5]; 25 g ai/ha): 35%
% weed control Barnyardgrass ([5]; 50 g ai/ha): 62%
% weed control Barnyardgrass ([5]; 100 g ai/ha): 82%
% weed control Barnyardgrass ([5]; 200 g ai/ha): 100%
% weed control Signalgrass ([6]; 6 g ai/ha): 23%
% weed control Signalgrass ([6]; 12 g ai/ha): 23%
% weed control Signalgrass ([6]; 25 g ai/ha): 57%
% weed control Signalgrass ([6]; 50 g ai/ha): 90%
% weed control Signalgrass ([6]; 100 g ai/ha): 98%
% weed control Signalgrass ([6]; 200 g ai/ha): 100%
% weed control Hemp ([7]; 6 g ai/ha): 0%
% weed control Hemp ([7]; 12 g ai/ha): 30%
% weed control Hemp ([7]; 25 g ai/ha): 13%
% weed control Hemp ([7]; 50 g ai/ha): 45%
% weed control Hemp ([7]; 100 g ai/ha): 98%
% weed control Hemp ([7]; 200 g ai/ha): 100%
% weed control Dayflower ([8]; 6 g ai/ha): 17%
% weed control Dayflower ([8]; 12 g ai/ha): 63%
% weed control Dayflower ([8]; 25 g ai/ha): 67%
% weed control Dayflower ([8]; 50 g ai/ha): 93%
% weed control Dayflower ([8]; 100 g ai/ha): 83%
% weed control Dayflower ([8]; 200 g ai/ha): 90%
red rice control (words, FIG. 1) [9, 10]: controlled
% weed control Red Rice ([9]; 6 g ai/ha): 23%
% weed control Red Rice ([9]; 12 g ai/ha): 33%
% weed control Red Rice ([9]; 25 g ai/ha): 90%
% weed control Red Rice ([9]; 50 g ai/ha): 100%
% weed control Red Rice ([9]; 100 g ai/ha): 97%
% weed control Red Rice ([9]; 200 g ai/ha): 100%
red rice control ([9]; summary of Table 7 data): controls
